A value given as a limit tells only on which side of the number the result lay.

For series [1], the target named is T1, α-Chymotrypsin (Bos taurus, UniProt P00766).
T1 construct: purchased Sigma-Aldrich (USA) C4129; host or cells: bovine pancreas
In words: α-Chymotrypsin inhibition kinetic study (Lineweaver-Burk, Dixon, Hanes-Woolf plots). It counts as biochemical, bovine. The note with it: for Type of inhibition: from Lineweaver-Burk, Dixon and Hanes-Woolf plots; for Ki: substrate SPpNA 0.4-3.2 mM, n = 3, read-out: Ki ± SEM. The source says:
(§1) α-Chymotrypsin (bovine pancreas, C4129) and N-succinyl-L-phenylalanine-p-nitroaniline (S2628) were purchased from Sigma-Aldrich (USA). Chymostatin (152845) from MP Biomedicals, LLC, USA, Tris(hydroxymethyl)aminomethane from Scharlau Chemie Barcelona, Spain and all other reagents were obtained from E. Merck and were of analytical grade. All other solvents and reagents were of analytical grade and used directly without purification.
The change in concentration of the substrate/product (rate of reaction) was measured as optical density per minute (OD/min). This OD/min was obtained by incorporating different concentrations of compounds over substrate (SPpNA) concentrations between 0.4 mM and 3.2 mM in micro-plate reader. Reciprocal of OD/min against the reciprocal of the substrate concentration, defined as Lineweaver-Burk plot (and its secondary plot; slope vs compound concentration); the Dixon plot (and its secondary plot; slope vs reciprocal of compound concentration) and then Hanes-Woolf plot were plotted (Lineweaver et al., 1934; Dixon, 1953; Segel, 1993) Graphs were plotted using GraFit 4 (Erithacus Software Limited, Surrey, UK) and GraphPad Prism 5 (GraphPad Software, California, USA). The types of inhibition were determined by the graphical views of Dixon plots, Lineweaver-Burk plots and their secondary plots as well as Hanes-Woolf plot. The Ki values, obtained directly from the software, also were cross-checked and tallied in these graphs. Final concentration of DMSO was maintained 5.5%.

A short description of series [2]: Cell proliferation inhibition (cytotoxicity) MTT assay for 3T3 cell line. It counts as cell-based, Mouse. The note with it: 3T3 mouse fibroblast cells; 3T3 mouse fibroblasts, MTT, 72 hrs, n = 3; read-out: 3T3 cell-line GI50 ± SEM. Here is the method: It was evaluated by using the MTT (3-[4,5-dimethylthiazole-2-yl]-2,5-diphenyl-tetrazolium bromide) assay (Mosmann, 1983). The 3T3 cell-lines (Mouse Fibroblasts) were cultured in Dulbecco's Modified Eagle's Medium, which was later supplemented with 5% of bovine serum, 100 IU/mL of penicillin, and 100 μg/mL of streptomycin, in 5% CO2 incubator at 37° C. Exponentially growing cell, 1×10^4 cells/well incorporated into each well of 96-well plates. Then, fresh the medium containing different concentrations of compounds were loaded in each well after 24 hours. Again, after 72 hrs, fresh the medium containing 0.5 mg/mL MTT were loaded in each well, and incubated further for 4 hrs. Subsequently, the media containing MTT was replaced by 100 μL of DMSO for 15 min, and then the absorbance was taken at 570 nm.

Series [3] concerns the target T1, α-Chymotrypsin. Nature of the series: α-Chymotrypsin inhibition assay (SPpNA substrate, absorbance at 410 nm). It counts as biochemical, bovine. The note with it: for IC50: α-chymotrypsin, substrate SPpNA 0.4 mM, pH 7.6, 30° C., n = 3. As for the experimental part: as §1
This was performed in 50 mM Tris-HCl buffer pH 7.6 with 10 mM CaCl2. α-Chymotrypsin (12 units/mL prepared in 50 mM Tris-HCl buffer) with the different concentration of test compounds prepared in DMSO. It was then incubated at 30° C. for 25 min. The reaction was started by the addition of the substrate, N-succinyl-L-phenylalanine-p-nitroanilide (final concentration of 0.4 mM, prepared in the buffer as mentioned above). The change in absorbance due to released p-nitroaniline was continuously monitored at 410 nm (Choudhary et al., 2011). All the experiments were in a final volume of 200 μL in triplicate, and data was taken using a micro-plate reader (SpectraMax M2, Molecular Devices, Calif., USA).
The results were processed by using SoftMax Pro 4.8 then analyzed by MS Excel software. The % of inhibition based upon initial velocity and calculated as: […]
IC50 (Inhibition of enzymatic hydrolysis of the substrate SPpNA by 50%) value was calculated using EZ-Fit software (Perellela Scientific, Inc., Amherst, Mars, USA).

`Cc1ccccc1NC(=S)Nc1cccc(Cl)c1` [Compound 17, 1-(3-Chlorophenyl)-3-o-tolylthiourea]: at α-Chymotrypsin [1], the Type of inhibition entry is “Competitive” and the Ki turned out to be 329 ± 11.6 µM. Besides, the GI50 at 72 h in series [2] was more than 30 µM. This compound also showed an IC50 against α-Chymotrypsin [3] of 387 ± 13.1 µM.

Take `Cc1ccc(NC(=S)Nc2cccc(Cl)c2)c(C)c1` [Compound 15, 1-(3-Chlorophenyl)-3-(2,4-dimethylphenyl) thiourea]: on α-Chymotrypsin [1], the Type of inhibition entry is reported as “Non- Competitive” and the inhibitory constant (Ki) is 173 ± 7.9 µM. Moreover, in series [2], the 50% growth inhibitory concentration (GI50) at 72 h was more than 30 µM. This compound had a half-maximal inhibitory concentration (IC50) at α-Chymotrypsin [3] of 192 ± 9.2 µM.

On to `S=C(Nc1cccc(Cl)c1)Nc1cccc(Cl)c1Cl` [Compound 13, 1-(3-chlorophenyl)-3-(2,3-dichlorophenyl) thiourea], for which, on α-Chymotrypsin [1], the Type of inhibition entry was “Competitive” and the inhibition constant (Ki) was found to be 87.3 ± 6.7 µM. For the same compound, the 50% growth inhibitory concentration (GI50) at 72 h in series [2] was more than 30 µM. Further, the 50% inhibitory concentration (IC50) at α-Chymotrypsin [3] worked out at 107 ± 9.1 µM.

Turning to `Cc1cccc(NC(=S)Nc2cccc(Cl)c2)c1` [Compound 10, 1-(3-Chlorophenyl)-3-m-tolylthiourea], on α-Chymotrypsin [1], the Type of inhibition result was “Mixed” and the Ki is 31.6 ± 1.8 µM. Besides, the GI50 at 72 h in series [2] is more than 30 µM. Half-maximal inhibition on α-Chymotrypsin [3] (IC50) required 48.5 ± 1.7 µM.

`S=C(Nc1ccccc1)Nc1cccnc1Cl` [Compound 33, 1-(2-Chloropyridin-3-yl)-3-phenylthiourea] yielded a concentration for half-maximal inhibition (IC50) against α-Chymotrypsin [3] of more than 500 µM.

For the compound `S=C(NCc1ccncc1)Nc1cccc(Cl)c1` [Compound 18, 1-(3-Chlorophenyl)-3-(pyridin-4-ylmethyl)thiourea], at α-Chymotrypsin [1], the Type of inhibition result is “Competitive” and the Ki was 148 ± 4.8 µM. Moreover, in series [2], the 50% growth inhibitory concentration (GI50) at 72 h was more than 30 µM. This compound also had an IC50 on α-Chymotrypsin [3] of 186 ± 12.8 µM.

As to `Fc1ccc(NC(=S)Nc2cccc(Cl)c2)cc1F` [Compound 11, 1-(3-Chlorophenyl)-3-(3,4-difluorophenyl) thiourea], on α-Chymotrypsin [1], the Type of inhibition result is recorded as “Competitive” and the inhibition constant Ki stood at 49.8 ± 2.6 µM. For the same compound, the GI50 at 72 h in series [2] was more than 30 µM. In addition, at α-Chymotrypsin [3], the IC50 turned out to be 66.9 ± 4.9 µM.

With `S=C(Nc1cccc(Cl)c1)Nc1c(Cl)cccc1Cl` [Compound 16, 1-(3-Chlorophenyl)-3-(2,6-dichlorophenyl) thiourea], at α-Chymotrypsin [1], the Type of inhibition result is on record as “Competitive” and the Ki stood at 210 ± 11.8 µM. The GI50 at 72 h in series [2] is more than 30 µM. The compound further displayed an IC50 at α-Chymotrypsin [3] of 247.3 ± 1.7 µM.

The compound `Cc1cccc(C)c1NC(=S)Nc1cccc(Cl)c1` [Compound 24, 1-(3-Chlorophenyl)-3-(2,6-dimethylphenyl) thiourea] had an IC50 against α-Chymotrypsin [3] of more than 500 µM.

Regarding `Fc1ccc(NC(=S)Nc2cccc(Cl)c2)cc1` [Compound 12, 1-(3-Chlorophenyl)-3-(4-fluorophenyl) thiourea], at α-Chymotrypsin [1], the Type of inhibition result is given as “Competitive” and the Ki worked out at 62.5 ± 2.5 µM. In addition, the concentration for 50% growth inhibition (GI50) at 72 h in series [2] was more than 30 µM. Besides, it took 68.4 ± 8.5 µM to reach half-maximal inhibition against α-Chymotrypsin [3] (IC50).

Take `S=C(Nc1ccccc1)Nc1ccccn1` [Compound 28, 1-Phenyl-3-(pyridin-2-yl) thiourea]: the 50% inhibitory concentration (IC50) on α-Chymotrypsin [3] is more than 500 µM.

With `Cc1ccc(C)c(NC(=S)Nc2cccc(Cl)c2)c1` [Compound 14, 1-(3-Chlorophenyl)-3-(2,5-dimethylphenyl) thiourea], at α-Chymotrypsin [1], the Type of inhibition entry is on record as “Competitive” and the Ki came to 107 ± 5.5 µM. Also, in series [2], the 50% growth inhibitory concentration (GI50) at 72 h was more than 30 µM. This compound also had a half-maximal inhibitory concentration (IC50) against α-Chymotrypsin [3] of 151 ± 8.8 µM.

For the compound `S=C(Nc1ccccc1)Nc1ccncc1` [Compound 30, 1-Phenyl-3-(pyridin-4-yl) thiourea], on α-Chymotrypsin [3], the IC50 was more than 500 µM.

Turning to `S=C(Nc1ccc(Cl)cc1)Nc1cccc(Cl)c1` [Compound 1, 1-(3-Chlorophenyl)-3-(4-chlorophenyl) thiourea], on α-Chymotrypsin [1], the Type of inhibition result was “mixed-type” and the Ki is 8.6 ± 0.8 µM. Besides, the GI50 at 72 h in series [2] was more than 30 µM. Half-maximal inhibition against α-Chymotrypsin [3] (IC50) required 11.6 µM.

In turn, `COc1ccc(OC)c(NC(=S)Nc2ccccc2)c1` [Compound 27, 1-(2,5-Dimethoxyphenyl)-3-phenylthiourea] displayed a 50% inhibitory concentration (IC50) against α-Chymotrypsin [3] of more than 500 µM.

The compound `S=C(Nc1cccc(Cl)c1)Nc1cccnc1Cl` [Compound 26, 1-(3-Chlorophenyl)-3-(2-chloropyridin-3-yl)thiourea] returned a concentration for half-maximal inhibition (IC50) against α-Chymotrypsin [3] of more than 500 µM.

Consider `S=C(Nc1ccccc1)Nc1ccc(Br)cc1` [Compound 20, 1-(4-Bromophenyl)-3-phenylthiourea], for which, at α-Chymotrypsin [1], the Type of inhibition entry is on record as “competitive-type” and the Ki turned out to be 21.1 ± 2.5 µM. In addition, in series [2], the concentration for 50% growth inhibition (GI50) at 72 h is more than 30 µM. For the same compound, on α-Chymotrypsin [3], the IC50 came out at 45.7 ± 2.9 µM.

At α-Chymotrypsin [3], `Cc1ccc(NC(=S)Nc2ccccc2)nc1C` [Compound 32, 1-(5,6-Dimethylpyridin-2-yl)-3-phenylthiourea] returned an IC50 of more than 500 µM.

Regarding `S=C(Nc1ccccc1)Nc1cccc(Br)c1` [Compound 21, 1-(3-Bromophenyl)-3-phenylthiourea], at α-Chymotrypsin [1], the Type of inhibition entry is “Mixed” and the Ki stood at 60.8 ± 7.4 µM. The GI50 at 72 h in series [2] is more than 30 µM. This compound also gave an IC50 at α-Chymotrypsin [3] of 79.2 ± 0.6 µM.

In turn, `S=C(NCc1cccnc1)Nc1ccccc1` [Compound 34, 1-Phenyl-3-(pyridin-3-ylmethyl)thiourea] registered a concentration for half-maximal inhibition (IC50) on α-Chymotrypsin [3] of more than 500 µM.

As for `Cc1cccnc1NC(=S)Nc1ccccc1` [Compound 31, 1-(3-Methylpyridin-2-yl)-3-phenylthiourea], the half-maximal inhibitory concentration (IC50) against α-Chymotrypsin [3] was more than 500 µM.

For `S=C(Nc1cccc(Cl)c1)Nc1ccc(Cl)c(Cl)c1` [Compound 2, 1-(3-Chlorophenyl)-3-(3,4-dichlorophenyl) thiourea], on α-Chymotrypsin [1], the Type of inhibition result is recorded as “non-competitive-type” and the Ki came out at 15.5 ± 0.4 µM. Also, the GI50 at 72 h in series [2] is more than 30 µM. In addition, the IC50 against α-Chymotrypsin [3] was 18.8 ± 0.2 µM.

Consider `Cc1cccnc1NC(=S)Nc1cccc(Cl)c1` [Compound 25, 1-(3-Chlorophenyl)-3-(3-methylpyridin-2-yl)thiourea], for which the concentration for half-maximal inhibition (IC50) against α-Chymotrypsin [3] is more than 500 µM.

For the compound `COc1cccc(NC(=S)Nc2cccc(Cl)c2)c1` [Compound 4, 1-(3-Chlorophenyl)-3-(3-methoxyphenyl) thiourea], on α-Chymotrypsin [1], the Type of inhibition entry is on record as “Mixed” and the Ki turned out to be 21.2 ± 1.5 µM. In addition, the GI50 at 72 h in series [2] is more than 30 µM. Moreover, the IC50 against α-Chymotrypsin [3] was found to be 25.4 ± 0.2 µM.

For the compound `COc1ccc(NC(=S)Nc2cccc(Cl)c2)cc1` [Compound 6, 1-(3-Chlorophenyl)-3-(4-methoxyphenyl) thiourea], on α-Chymotrypsin [1], the Type of inhibition result is on record as “Mixed” and the Ki came out at 25.6 ± 0.9 µM. Also, the GI50 at 72 h in series [2] was more than 30 µM. In addition, half-maximal inhibition against α-Chymotrypsin [3] (IC50) was put at 34.3 ± 2.8 µM.

`S=C(Nc1cccc(Cl)c1)Nc1cccc(Cl)c1` [Compound 3, 1,3-Bis(3-chlorophenyl) thiourea]: on α-Chymotrypsin [1], the Type of inhibition result is “Mixed” and the Ki turned out to be 15.9 ± 1.5 µM. For the same compound, the GI50 at 72 h in series [2] is more than 30 µM. This compound also showed an IC50 against α-Chymotrypsin [3] of 23.3 µM.

`S=C(NCc1ccncc1)Nc1ccccc1` [Compound 35, 1-Phenyl-3-(pyridin-4-ylmethyl)thiourea]: at α-Chymotrypsin [3], the IC50 is more than 500 µM.

In the case of `S=C(Nc1ccccc1)Nc1cccnc1` [Compound 29, 1-Phenyl-3-(pyridin-3-yl) thiourea], at α-Chymotrypsin [3], the “α-chymotrypsin inhibition (in words)” value was “inactive” and the IC50 is more than 500 µM.

Consider `S=C(Nc1cccc(Cl)c1)Nc1ccccc1Cl` [Compound 23, 1-(2-Chlorophenyl)-3-(3-chlorophenyl) thiourea], for which, at α-Chymotrypsin [3], the “α-chymotrypsin inhibition (in words)” value was “failed to show any inhibition” and the IC50 is more than 500 µM.

Values taken from patent US20150080580A1, “THIOUREA DERIVATIVES AS a-CHYMOTRYPSIN INHIBITORS” (priority 2013, published 2015).
